# The source made the active and inactive calls.
# Assays:
# [1] = IC50 of Artemis nuclease activity blockers – biochemical, fluorescence intensity, dose response (AID 720701); format: functional;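 also: Artemis endonuclease enzyme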
# [2] = viability of uninfected HEp-2 cells – cell-based, HTS, cytotoxicity control for RSV inhibitor project, dose response (AID 2410); format: functional; conditions: human respiratory syncytial virus
# [3] = viability loss in THP-1 monocytes – THP-1 cells, cytotoxicity control for Vif-APOBEC3G degradation inhibitor project, dose response (AID 1117359); format: functional; conditions: THP-1
# [4] = target: T1, Histone-lysine N-methyltransferase NSD2 (Homo sapiens, UniProt O96028); format: biochemical
# T1 sequence (O96028 whole entry): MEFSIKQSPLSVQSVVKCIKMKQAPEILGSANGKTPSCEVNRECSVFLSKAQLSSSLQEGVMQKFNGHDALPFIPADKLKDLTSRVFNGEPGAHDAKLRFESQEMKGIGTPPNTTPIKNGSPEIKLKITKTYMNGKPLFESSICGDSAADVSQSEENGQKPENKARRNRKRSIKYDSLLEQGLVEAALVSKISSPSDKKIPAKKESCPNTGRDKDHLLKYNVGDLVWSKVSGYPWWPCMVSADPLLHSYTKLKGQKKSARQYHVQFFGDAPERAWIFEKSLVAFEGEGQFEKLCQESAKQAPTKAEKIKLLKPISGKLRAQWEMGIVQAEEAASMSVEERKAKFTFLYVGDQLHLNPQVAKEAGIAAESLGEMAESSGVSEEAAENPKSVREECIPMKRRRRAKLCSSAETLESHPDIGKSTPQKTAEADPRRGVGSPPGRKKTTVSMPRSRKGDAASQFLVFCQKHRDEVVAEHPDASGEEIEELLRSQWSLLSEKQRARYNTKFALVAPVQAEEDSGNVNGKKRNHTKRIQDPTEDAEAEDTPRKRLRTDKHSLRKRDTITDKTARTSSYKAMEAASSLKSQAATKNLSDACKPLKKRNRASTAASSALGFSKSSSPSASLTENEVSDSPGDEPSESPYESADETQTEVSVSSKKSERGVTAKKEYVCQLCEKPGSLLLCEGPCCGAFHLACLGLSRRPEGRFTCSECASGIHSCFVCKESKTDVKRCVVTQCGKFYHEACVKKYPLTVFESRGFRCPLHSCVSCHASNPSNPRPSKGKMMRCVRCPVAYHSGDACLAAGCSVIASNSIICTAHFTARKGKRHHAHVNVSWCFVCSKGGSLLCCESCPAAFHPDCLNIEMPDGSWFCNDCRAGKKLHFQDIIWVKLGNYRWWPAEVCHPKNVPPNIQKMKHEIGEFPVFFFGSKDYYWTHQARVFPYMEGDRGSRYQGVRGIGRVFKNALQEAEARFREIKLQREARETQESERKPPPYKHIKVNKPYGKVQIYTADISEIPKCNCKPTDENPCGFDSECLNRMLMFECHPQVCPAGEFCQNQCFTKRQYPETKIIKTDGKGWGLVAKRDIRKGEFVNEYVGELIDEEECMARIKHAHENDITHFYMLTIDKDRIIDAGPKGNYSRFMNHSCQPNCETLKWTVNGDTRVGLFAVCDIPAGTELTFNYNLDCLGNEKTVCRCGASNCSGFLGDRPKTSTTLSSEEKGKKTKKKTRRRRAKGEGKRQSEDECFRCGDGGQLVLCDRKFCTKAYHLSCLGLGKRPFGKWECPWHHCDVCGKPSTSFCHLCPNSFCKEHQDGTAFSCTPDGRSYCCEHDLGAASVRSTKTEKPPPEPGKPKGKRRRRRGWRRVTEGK
# [5] = viability loss in human Jurkat cells – cell-based, luminescence, cytotoxicity control for P. falciparum gametocyte viability project, dose response (AID 1117277); format: functional;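 also: potency reflects loss of cellular ATP meaning fewer viable cells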
# [6] = viability inhibitors of stage V gametocytes – luminescence, dose response (AID 1117278); format: functional, cell-based;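 also: gametocytes exposed to compound for 24 hours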
# [7] = target: Mitogen-activated protein kinase 10 (Homo sapiens, UniProt P53779); experiment: Dose response biochemical screening assay for inhibitors of c-Jun N-Terminal Kinase 3 (JNK3). [Related pubchem assays: 746 ]
# Mitogen-activated protein kinase 10, sequence (P53779 whole entry): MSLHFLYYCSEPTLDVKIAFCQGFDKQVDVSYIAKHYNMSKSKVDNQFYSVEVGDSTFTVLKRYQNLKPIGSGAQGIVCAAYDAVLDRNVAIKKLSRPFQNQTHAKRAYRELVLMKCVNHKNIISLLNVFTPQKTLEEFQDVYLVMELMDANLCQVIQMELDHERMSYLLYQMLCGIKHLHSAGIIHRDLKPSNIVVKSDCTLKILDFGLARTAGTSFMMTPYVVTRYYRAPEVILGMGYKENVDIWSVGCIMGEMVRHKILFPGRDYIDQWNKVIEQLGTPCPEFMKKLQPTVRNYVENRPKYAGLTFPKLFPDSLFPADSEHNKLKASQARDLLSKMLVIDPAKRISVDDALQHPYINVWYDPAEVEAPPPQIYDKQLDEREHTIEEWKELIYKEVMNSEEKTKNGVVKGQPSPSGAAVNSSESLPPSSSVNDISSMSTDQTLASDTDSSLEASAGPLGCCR
# [8] = target: T2, 1-phosphatidylinositol 4,5-bisphosphate phosphodiesterase gamma-1 (Homo sapiens, UniProt P19174); experiment: Counterscreen for inhibitors of phospholipase C isozymes (PLC-B3): Fluorescence-based biochemical high throughput dose response assay to identify inhibitors of phospholipase C isozymes (PLC-gamma1).
# T2 sequence (P19174 whole entry): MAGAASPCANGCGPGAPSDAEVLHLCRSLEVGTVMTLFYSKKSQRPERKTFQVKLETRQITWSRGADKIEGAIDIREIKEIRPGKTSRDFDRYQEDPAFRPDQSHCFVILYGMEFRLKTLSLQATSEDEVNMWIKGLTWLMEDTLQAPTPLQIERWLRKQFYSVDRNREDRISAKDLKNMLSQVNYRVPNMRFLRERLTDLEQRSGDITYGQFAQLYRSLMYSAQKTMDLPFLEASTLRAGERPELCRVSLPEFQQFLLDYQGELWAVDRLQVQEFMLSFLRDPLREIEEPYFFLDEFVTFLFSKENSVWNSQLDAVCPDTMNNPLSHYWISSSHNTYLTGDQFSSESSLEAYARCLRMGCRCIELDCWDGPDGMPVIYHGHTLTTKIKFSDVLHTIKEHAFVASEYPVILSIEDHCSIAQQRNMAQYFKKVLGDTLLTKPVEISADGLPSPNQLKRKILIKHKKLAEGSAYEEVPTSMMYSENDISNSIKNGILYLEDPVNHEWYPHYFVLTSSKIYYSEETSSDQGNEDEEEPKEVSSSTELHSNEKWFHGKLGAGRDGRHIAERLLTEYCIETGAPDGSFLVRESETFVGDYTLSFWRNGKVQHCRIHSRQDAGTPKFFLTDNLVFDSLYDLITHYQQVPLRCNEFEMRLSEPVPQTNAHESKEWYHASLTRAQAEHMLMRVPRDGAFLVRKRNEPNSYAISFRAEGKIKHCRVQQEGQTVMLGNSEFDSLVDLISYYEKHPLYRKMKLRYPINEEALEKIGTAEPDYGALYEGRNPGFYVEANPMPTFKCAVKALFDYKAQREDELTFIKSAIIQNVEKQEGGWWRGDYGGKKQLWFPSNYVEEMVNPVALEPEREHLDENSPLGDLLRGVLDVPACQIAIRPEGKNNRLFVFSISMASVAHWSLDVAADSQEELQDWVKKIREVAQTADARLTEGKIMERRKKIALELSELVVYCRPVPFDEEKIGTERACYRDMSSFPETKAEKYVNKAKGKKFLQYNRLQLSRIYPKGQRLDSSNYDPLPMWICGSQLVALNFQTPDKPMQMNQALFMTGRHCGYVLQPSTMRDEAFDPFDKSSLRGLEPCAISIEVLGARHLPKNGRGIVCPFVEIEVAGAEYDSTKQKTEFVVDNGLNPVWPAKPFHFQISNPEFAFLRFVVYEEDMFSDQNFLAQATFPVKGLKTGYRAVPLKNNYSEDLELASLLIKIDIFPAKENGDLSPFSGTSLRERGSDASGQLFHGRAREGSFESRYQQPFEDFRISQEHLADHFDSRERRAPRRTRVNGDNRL
# [9] = target: T3, 1-phosphatidylinositol 4,5-bisphosphate phosphodiesterase beta-3 (Homo sapiens, UniProt Q01970); experiment: Fluorescence-based biochemical high throughput dose response assay to identify inhibitors of phospholipase C isozymes (PLC-B3).
# T3 sequence (Q01970 whole entry): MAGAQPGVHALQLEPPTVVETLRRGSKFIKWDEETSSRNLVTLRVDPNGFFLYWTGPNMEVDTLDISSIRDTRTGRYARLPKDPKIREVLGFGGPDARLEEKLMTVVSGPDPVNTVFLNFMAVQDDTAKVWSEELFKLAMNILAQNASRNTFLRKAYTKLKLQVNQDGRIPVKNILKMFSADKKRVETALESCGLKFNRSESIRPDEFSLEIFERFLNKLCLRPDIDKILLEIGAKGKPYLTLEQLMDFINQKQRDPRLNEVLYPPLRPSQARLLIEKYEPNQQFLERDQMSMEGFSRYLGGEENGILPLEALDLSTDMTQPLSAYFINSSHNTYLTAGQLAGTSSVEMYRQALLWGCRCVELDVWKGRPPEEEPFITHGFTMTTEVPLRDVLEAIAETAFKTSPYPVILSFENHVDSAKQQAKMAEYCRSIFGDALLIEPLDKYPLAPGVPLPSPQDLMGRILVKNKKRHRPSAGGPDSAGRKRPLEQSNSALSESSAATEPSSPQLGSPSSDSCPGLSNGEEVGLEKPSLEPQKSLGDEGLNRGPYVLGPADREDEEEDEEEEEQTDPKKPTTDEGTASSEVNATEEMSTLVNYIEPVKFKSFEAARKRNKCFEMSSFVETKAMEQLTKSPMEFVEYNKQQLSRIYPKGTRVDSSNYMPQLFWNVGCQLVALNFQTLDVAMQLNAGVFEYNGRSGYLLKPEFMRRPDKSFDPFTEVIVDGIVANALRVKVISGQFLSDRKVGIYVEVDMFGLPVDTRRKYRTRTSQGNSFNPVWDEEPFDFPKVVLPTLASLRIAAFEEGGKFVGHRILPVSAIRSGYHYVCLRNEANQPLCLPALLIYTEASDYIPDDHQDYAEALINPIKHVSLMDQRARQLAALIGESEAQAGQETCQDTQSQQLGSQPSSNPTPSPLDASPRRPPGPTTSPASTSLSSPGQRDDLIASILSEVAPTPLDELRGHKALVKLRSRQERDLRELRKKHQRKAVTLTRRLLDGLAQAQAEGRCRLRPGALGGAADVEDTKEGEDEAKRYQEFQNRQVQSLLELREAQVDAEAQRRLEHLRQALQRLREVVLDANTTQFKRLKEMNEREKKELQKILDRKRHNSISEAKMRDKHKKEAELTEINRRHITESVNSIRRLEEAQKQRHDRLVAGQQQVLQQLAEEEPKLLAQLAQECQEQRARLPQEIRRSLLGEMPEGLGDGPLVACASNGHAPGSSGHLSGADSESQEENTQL
# [10] = target: DNA dC->dU-editing enzyme APOBEC-3A (Homo sapiens, UniProt P31941); experiment: Dose Response confirmation of small molecule APOBEC3A DNA Deaminase Inhibitors via a fluorescence-based single-stranded DNA deaminase assay. [Related pubchem assays (depositor defined):AID493011, AID493024]; format: functional
# DNA dC->dU-editing enzyme APOBEC-3A, sequence (P31941 whole entry): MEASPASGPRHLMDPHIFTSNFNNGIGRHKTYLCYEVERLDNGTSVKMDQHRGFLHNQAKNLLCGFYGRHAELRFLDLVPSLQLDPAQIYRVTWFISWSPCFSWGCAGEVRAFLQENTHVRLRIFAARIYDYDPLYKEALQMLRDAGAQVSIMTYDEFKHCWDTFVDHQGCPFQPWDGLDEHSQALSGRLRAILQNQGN
# [11] = target: T4, Estrogen receptor beta (Homo sapiens, UniProt Q92731);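 also: recombinant ER-beta bound to coactivator SRC1 peptide in presence of estradiol agonist; inhibitors block coactivator peptide binding and lower the FRET signal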
# T4 sequence (Q92731 whole entry): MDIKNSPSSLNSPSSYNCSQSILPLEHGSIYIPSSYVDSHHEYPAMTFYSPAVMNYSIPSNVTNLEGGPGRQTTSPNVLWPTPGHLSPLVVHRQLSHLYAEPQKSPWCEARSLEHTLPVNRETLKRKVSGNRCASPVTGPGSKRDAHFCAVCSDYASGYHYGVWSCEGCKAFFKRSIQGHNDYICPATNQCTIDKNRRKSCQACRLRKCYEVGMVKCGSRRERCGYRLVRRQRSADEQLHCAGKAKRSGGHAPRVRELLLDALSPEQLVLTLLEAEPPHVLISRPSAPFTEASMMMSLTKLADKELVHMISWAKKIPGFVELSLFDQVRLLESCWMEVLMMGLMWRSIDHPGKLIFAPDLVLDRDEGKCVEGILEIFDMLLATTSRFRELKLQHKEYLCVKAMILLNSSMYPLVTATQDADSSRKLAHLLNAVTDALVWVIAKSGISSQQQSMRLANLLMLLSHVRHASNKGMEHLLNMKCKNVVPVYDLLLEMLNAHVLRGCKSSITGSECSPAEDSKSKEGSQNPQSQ
# [12] = target: T4, Estrogen receptor beta; experiment: blockers of SRC-3 recruitment to ERβ – biochemical, ELISA, streptavidin-HRP readout, orthogonal assay, confirmation (AID 1060)
# [13] = target: DNA dC->dU-editing enzyme APOBEC-3G (Homo sapiens, UniProt Q9HC16); format: functional;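 also: Dose-response counterscreen measuring inhibition of APOBEC3G DNA deaminase activity, run while confirming APOBEC3A inhibitors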
# DNA dC->dU-editing enzyme APOBEC-3G, sequence (Q9HC16 whole entry): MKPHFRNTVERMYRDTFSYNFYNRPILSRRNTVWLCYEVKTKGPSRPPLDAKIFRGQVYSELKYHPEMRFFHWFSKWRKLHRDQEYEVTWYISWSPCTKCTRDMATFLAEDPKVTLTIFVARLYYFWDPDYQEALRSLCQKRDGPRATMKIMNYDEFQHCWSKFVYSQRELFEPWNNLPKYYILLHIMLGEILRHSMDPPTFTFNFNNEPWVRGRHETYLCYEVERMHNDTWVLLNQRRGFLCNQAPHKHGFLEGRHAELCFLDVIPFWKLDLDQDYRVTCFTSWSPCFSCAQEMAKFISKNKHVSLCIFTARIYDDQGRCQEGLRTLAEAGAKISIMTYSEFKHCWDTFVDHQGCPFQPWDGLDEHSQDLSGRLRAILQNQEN
# [14] = OVCAR8 cell viability loss – plate reader, dry powder samples, PAX8 project, dose response (AID 743197); format: functional, cell-based; conditions: OVCAR-8
# [15] = target: Paired box protein Pax-8 (Homo sapiens, UniProt Q06710); experiment: PAX8 transcriptional activity inhibition in RMG-I – RMG-I cells, luciferase, cherry-pick, dose response (AID 687027); format: functional, cell-based;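 also: luciferase reporter driven by Pax8 target thyroperoxidase promoter measured by SteadyGlo luminescence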
# Paired box protein Pax-8, sequence (Q06710 whole entry): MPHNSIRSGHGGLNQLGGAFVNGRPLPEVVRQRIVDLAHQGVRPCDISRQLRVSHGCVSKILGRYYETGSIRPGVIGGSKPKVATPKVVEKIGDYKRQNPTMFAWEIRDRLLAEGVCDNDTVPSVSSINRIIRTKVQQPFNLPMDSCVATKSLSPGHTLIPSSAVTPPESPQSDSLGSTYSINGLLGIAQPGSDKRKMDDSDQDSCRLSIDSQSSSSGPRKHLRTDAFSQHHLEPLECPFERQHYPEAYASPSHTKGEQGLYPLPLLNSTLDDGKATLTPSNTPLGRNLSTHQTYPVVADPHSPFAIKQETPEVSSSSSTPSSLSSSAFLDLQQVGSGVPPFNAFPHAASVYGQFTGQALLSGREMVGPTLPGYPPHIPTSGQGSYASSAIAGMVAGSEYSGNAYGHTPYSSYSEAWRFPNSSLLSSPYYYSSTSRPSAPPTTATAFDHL
# [16] = OVCAR-3 cell viability loss – plate reader, dry powder samples, PAX8 inhibitor project, dose response (AID 743044); format: functional, cell-based
smiles,measurement,setting,value
CCOC(=O)N1CCN(Cc2nc(N)nc(Nc3ccc(Oc4ccccc4)cc3)n2)CC1,IC50,[1],> 20 µM (inactive)
CCN=c1ccc(Br)cc(C(=O)/C=C/c2ccc3c(c2)OCO3)c1O,IC50,[1],> 20 µM (inactive)
same,CC50,[2],13.8 µM (active)
same,CC50,[3],32.6 µM (active)
CCCCCNc1nc(NCCCO)c(C#N)c2c1CN(C)CC2,AC50,[4],> 20 µM (inactive)
same,IC50,[5],> 83.3 µM (inactive)
same,IC50,[6],> 109 µM (inactive)
CCOC(=O)CSc1nc2c(sc3ccccc32)c(=O)n1CCCN1CCOCC1,IC50,[7],40 µM (not active)
O=C(NCc1ccccc1)c1[nH]nnc1-c1ccccc1O,IC50,[8],108 µM (inactive)
same,IC50,[9],> 122 µM (inactive)
O=C1N=C(S)SC1=C1CCCC1,IC50,[10],5.61 µM (active)
same,IC50,[8],47.5 µM (inactive)
same,IC50,[11],> 50 µM (not active)
same,IC50,[12],0.24 µM (not active)
same,IC50,[13],7.39 µM (active)
same,IC50,[9],> 122 µM (inactive)
COC(=O)c1c(NC(=O)Cc2cccs2)sc(C)c1C,IC50,[7],34.8 µM (not active)
CCOC(=O)c1c(NC(=O)CSc2nnc(-c3ccco3)o2)sc(C)c1C,IC50,[5],> 83.3 µM (inactive)
same,IC50,[6],> 109 µM (inactive)
O=c1[nH]c(=S)c2c(n1-c1ccccc1)CCC2,IC50,[7],76 µM (not active)
FC(F)(F)c1cnc(Oc2ccccc2-c2nnc(-c3ccc(Cl)cc3)o2)c(Cl)c1,IC50,[8],> 123 µM (inactive)
same,IC50,[9],> 123 µM (inactive)
Cc1nnc2sc(SCC(=O)Nc3ccc(Br)cc3)nn2c1=O,IC50,[5],> 83.3 µM (inactive)
same,IC50,[6],> 109 µM (inactive)
C[C@@H]1CCCCO[C@H](CN(C)Cc2ccc(C(F)(F)F)cc2)[C@H](C)CN([C@H](C)CO)C(=O)c2cc(NC(=O)c3ccccc3)ccc2O1,AC50,[14],45.2 µM (active)
same,AC50,[15],10.1 µM (active)
same,AC50,[16],43.7 µM (active)

# From ChEMBL document CHEMBL1201862, “PubChem BioAssay data set” (2004)
